Results as given in patent publication US12077503B2, “Substituted cyclic amides and their use as herbicides” (FMC CORPORATION, priority 2015, dated 2024).

Tests used:
Format in all cases: in vivo
[1] = tested on: barnyardgrass (Echinochloa crus-galli); assay: Test B flooded paddy test; conditions: Echinochloa crus-galli, 250 g ai/ha, Flood; 0 to 100 scale where 0 is no effect and 100 is complete control; read-out: Barnyardgrass plant response rating
Outline: (§1)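 Flooding to 3 cm over soil accompanied treatment, which consisted of adding compound to the standing water around 2-leaf plants; depth was then maintained. Visual assessment versus controls followed at 13 to 15 d (scale 0–100, 0 meaning no effect).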

[2] = tested on: ducksalad (Heteranthera limosa); assay: Test B flooded paddy test; conditions: Heteranthera limosa, 250 g ai/ha, Flood; 0 to 100 scale where 0 is no effect and 100 is complete control; read-out: Ducksalad plant response rating
Outline: as §1

[3] = tested on: sedge, umbrella (small-flower umbrella sedge, Cyperus difformis); assay: Test B flooded paddy test; conditions: Cyperus difformis, 250 g ai/ha, Flood; 0 to 100 scale where 0 is no effect and 100 is complete control; read-out: Sedge, Umbrella plant response rating
Outline: as §1

rice (Oryra sativa) = assay: Test B flooded paddy test; conditions: Oryza sativa, 250 g ai/ha, Flood; 0 to 100 scale where 0 is no effect and 100 is complete control; read-out: Rice plant response rating
Outline: as §1

[4] = tested on: barnyardgrass (Echinochloa crus-galli); assay: Test A preemergence; conditions: Echinochloa crus-galli, pre-emergence, 240 h, 0 to 100 scale where 0 is no effect and 100 is complete control, read-out: Barnyardgrass plant response rating
Outline: (§2)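 Greenhouse, ~10 d after spray; visual injury vs untreated controls, 0 = no effect, 100 = complete control. Preemergence: directed soil spray over planted seeds. Postemergence: plants 2–10 cm, 1–2 leaf stage. Loam/sand blend. Compound in non-phytotoxic solvent with surfactant.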

[5] = tested on: giant foxtail (Setaria faberii); assay: Test A preemergence; conditions: Setaria faberi, pre-emergence, 240 h, 0 to 100 scale where 0 is no effect and 100 is complete control, read-out: Foxtail, Giant plant response rating
Outline: as §2

[6] = tested on: ragweed (common ragweed, Ambrosia elatior); assay: Test A preemergence; conditions: Ambrosia artemisiifolia, pre-emergence, 240 h, 0 to 100 scale where 0 is no effect and 100 is complete control, read-out: Ragweed plant response rating
Outline: as §2

[7] = tested on: ryegrass, Italian (Italian ryegrass, Lolium multiflorum); assay: Test A preemergence; conditions: Lolium multiflorum, pre-emergence, 240 h, 0 to 100 scale where 0 is no effect and 100 is complete control, read-out: Ryegrass, Italian plant response rating
Outline: as §2

[8] = tested on: pigweed (Amaranthus retroflexus); assay: Test A preemergence; conditions: Amaranthus retroflexus, pre-emergence, 240 h, 0 to 100 scale where 0 is no effect and 100 is complete control, read-out: Pigweed plant response rating
Kochia (Kochia scoparia) [9] = assay: Test A preemergence; conditions: Bassia scoparia, pre-emergence, 240 h, 0 to 100 scale where 0 is no effect and 100 is complete control, read-out: Kochia plant response rating
Outline: as §2

[10] = tested on: barnyardgrass (Echinochloa crus-galli); assay: Test A postemergence; conditions: Echinochloa crus-galli, post-emergence, 240 h, Postemergence
Outline: as §2

[11] = tested on: Galium (catchweed bedstraw, Galium aparine); assay: Test A postemergence; conditions: Galium, post-emergence, 240 h, Postemergence, read-out: Galium plant response rating (0 to 100 scale)
Outline: as §2

[12] = tested on: giant foxtail (Setaria faberii); assay: Test A postemergence; conditions: Setaria faberi, post-emergence, 240 h, Postemergence, read-out: Foxtail, Giant plant response rating (0 to 100 scale)
Outline: as §2

[13] = tested on: ragweed (common ragweed, Ambrosia elatior); assay: Test A postemergence; conditions: Ambrosia artemisiifolia, post-emergence, 240 h, Postemergence, read-out: Ragweed plant response rating (0 to 100 scale)
Outline: as §2

[14] = tested on: blackgrass (Alopecurus myosuroides); assay: Test A postemergence; conditions: Alopecurus myosuroides, post-emergence, 240 h, Postemergence, read-out: Blackgrass plant response rating (0 to 100 scale)
Outline: as §2

[15] = tested on: ryegrass, Italian (Italian ryegrass, Lolium multiflorum); assay: Test A postemergence; conditions: Lolium multiflorum, post-emergence, 240 h, Postemergence, read-out: Ryegrass, Italian plant response rating (0 to 100 scale)
Outline: as §2

corn (Zea mays) = assay: Test A postemergence; conditions: Zea mays, post-emergence, 240 h, Postemergence, read-out: Corn plant response rating (0 to 100 scale)
Outline: as §2

[16] = tested on: wheat (Triticum aestivum); assay: Test A postemergence; conditions: Triticum aestivum, post-emergence, 240 h, Postemergence, read-out: Wheat plant response rating (0 to 100 scale)
Outline: as §2

[17] = tested on: pigweed (Amaranthus retroflexus); assay: Test A postemergence; conditions: Amaranthus retroflexus, post-emergence, 240 h, Postemergence, read-out: Pigweed plant response rating (0 to 100 scale)
Outline: as §2

Kochia (Kochia scoparia) [18] = assay: Test A postemergence; conditions: Bassia scoparia, post-emergence, 240 h, Postemergence, read-out: Kochia plant response rating (0 to 100 scale)
Outline: as §2

[19] = 125 g ai/ha, preemergence, visual injury rating, approximately 10 d
[20] = 125 g ai/ha, visual rating about 10 d after treatment
[21] = 31 g ai/ha, 0 is no effect, 100 is complete control

O=C1NC[C@H](c2cc(Cl)cc(Cl)c2)[C@H]1C(=O)Nc1cccc(F)c1F [Compound 1273]
pest or weed control at 250 g/ha [1]: 30% | pest or weed control at 250 g/ha [2]: 90% | pest or weed control at 250 g/ha [3]: 0% | pest or weed control at 250 g/ha (rice (Oryra sativa)): 0% | pest or weed control at 31 g/ha ([4]; 31 g ai/ha, Preemergence): 60% | pest or weed control at 125 g/ha [4, 19]: 80% | pest or weed control at 31 g/ha ([5]; 31 g ai/ha, Preemergence): 80% | pest or weed control at 125 g/ha [5, 19]: 90% | pest or weed control at 31 g/ha ([6]; 31 g ai/ha, Preemergence): 0% | pest or weed control at 125 g/ha [6, 19]: 0% | pest or weed control at 31 g/ha ([7]; 31 g ai/ha, Preemergence): 0% | pest or weed control at 125 g/ha [7, 19]: 40% | pest or weed control at 31 g/ha ([8]; 31 g ai/ha, Preemergence): 0% | pest or weed control at 125 g/ha [8, 19]: 20% | pest or weed control at 31 g/ha (Kochia (Kochia scoparia) [9]; 31 g ai/ha, Preemergence): 0% | pest or weed control at 125 g/ha (Kochia (Kochia scoparia) [9]; [19]): 50% | pest or weed control at 125 g/ha ([10]; 125 g ai/ha, visual rating about 10 d after treatment, read-out: Barnyardgrass plant response rating (0 to 100 scale, 0 no effect, 100 complete control)): 60% | pest or weed control at 31 g/ha ([10]; 31 g ai/ha, 0 is no effect, 100 is complete control, read-out: Barnyardgrass plant response rating (0 to 100 scale)): 50% | pest or weed control at 125 g/ha [11, 20]: 50% | pest or weed control at 31 g/ha [11, 21]: 40% | pest or weed control at 125 g/ha [12, 20]: 80% | pest or weed control at 31 g/ha [12, 21]: 60% | pest or weed control at 125 g/ha [13, 20]: 0% | pest or weed control at 31 g/ha [13, 21]: 0% | pest or weed control at 125 g/ha [14, 20]: 20% | pest or weed control at 31 g/ha [14, 21]: 0% | pest or weed control at 125 g/ha [15, 20]: 40% | pest or weed control at 31 g/ha [15, 21]: 0% | plant injury at 125 g/ha (corn (Zea mays); [20]): 60% | plant injury at 31 g/ha (corn (Zea mays); [21]): 0% | plant injury at 125 g/ha [16, 20]: 30% | plant injury at 31 g/ha [16, 21]: 0% | pest or weed control at 125 g/ha [17, 20]: 40% | pest or weed control at 31 g/ha [17, 21]: 0% | pest or weed control at 125 g/ha (Kochia (Kochia scoparia) [18]; [20]): 60% | pest or weed control at 31 g/ha (Kochia (Kochia scoparia) [18]; [21]): 0%
